Data as given in EPA's ToxValDB 9.5.
Several values for one entry are separate records, joined by “and”; a condition that tells them apart may be missing. Equal entries are not always repeated.

Legend:
Rattus norvegicus [1] = settings: for LEL: uterotrophic, Active
Mus musculus = settings: uterotrophic, Active
Rattus norvegicus [2] = settings: subchronic, oral, diet, M/F
Rattus norvegicus [3] = system: Rattus norvegicus
Rattus norvegicus [4] = system: Rattus norvegicus; remark: listed apart in the source
[5] = duration: 0 days, injection, intraperitoneal
[6] = duration: 1 days, injection, intraperitoneal
[7] = duration: 3 days, injection, intraperitoneal
[8] = duration: 4 days, injection, subcutaneous
[9] = duration: 10 days, injection, subcutaneous
[10] = duration: 14 days, injection, subcutaneous
[11] = chronic, oral, gavage, F, increased kidney weight in female rats
[12] = subchronic, duration: 13 weeks, inhalation, M/F, increased kidney weight in female rats and adrenal weight in male and female rats

`CC/C(=C(/CC)c1ccc(O)cc1)c1ccc(O)cc1` [Diethylstilbestrol] gave an LEL (Rattus norvegicus [1]; [5]) of 0.05 mg, an LEL (Rattus norvegicus [1]; duration: 1 days, dermal) of 0.5 mg/L and an LEL (Rattus norvegicus [1]; [6]) of 0.01 mg/kg-day. The LEL (Rattus norvegicus [1]; [7]) was 0.01 mg/kg-day, the LEL (Rattus norvegicus [1]; [8]) was 0.01 mg/day and the LEL (Rattus norvegicus [1]; duration: 4 days, oral, diet) was 0.005 ppm and 0.01 ppm. For the same molecule, the LEL (Rattus norvegicus [1]; duration: 7 days, oral) was 0.0009 mg/kg-day, the LEL (Rattus norvegicus [1]; duration: 8 days, injection, intraperitoneal) was 0.01 mg/kg-day and the LEL (Mus musculus; [6]) was 0.0005 mg/kg-day. The LEL (Mus musculus; duration: 1 days, injection, subcutaneous) was 0.00045 mg/animal, the LEL (Mus musculus; duration: 1.2 days, injection, subcutaneous) was 0.00045 mg/animal and the LEL (Mus musculus; [7]) was 0.1 mg/kg-day. For the same molecule, the LEL (Mus musculus; duration: 3 days, oral) was 0.02 mg/kg-day, the LEL (Mus musculus; duration: 4 days, oral) was 0.0006 mg/day and the LEL (Mus musculus; duration: 5 days, oral, diet) was 0.004 ppm. For the same molecule, the LEL (Mus musculus; duration: 6 days, oral, diet) was 3.6e-05 mg and 5e-05 mg/day, the LEL (Mus musculus; duration: 9 days, injection, subcutaneous) was 0.5 mg/kg-day and the LEL (Mus musculus; duration: 9 days, oral, diet) was 0.004 ppm. The LEL (Mus musculus; [9]) was 0.0001 mg/day, the LEL (Mus musculus; duration: 11 days, oral, diet) was 0.004 ppm and the LEL (Mus musculus; duration: 42 days, injection, subcutaneous) was 0.01 mg/kg-day. It also gave an LEL (Mus musculus; oral) of 0.002 mg/kg-day.

`O=c1c(-c2ccc(O)cc2)coc2cc(O)cc(O)c12` [Genistein] was tested, and the NOEL (Rattus norvegicus [2]; Wistar, Body Weight Changes: decrease + Food Consumption: decrease + Hematology: RBC decrease, Ret increase, , Hgb decrease + Blood Chemistry: gamma…) was 50 mg/kg-day, the LEL (Rattus norvegicus [1]; [5]) was 1.25 mg and the LEL (Rattus norvegicus [1]; [6]) was 0.4 mg. For the same molecule, the LEL (Rattus norvegicus [1]; duration: 3.5 days, injection, subcutaneous) was 1.25 mg/day, the LEL (Rattus norvegicus [1]; duration: 4 days, oral) was 100 mg/kg-day and the LEL (Rattus norvegicus [1]; duration: 5 days, oral, diet) was 375 mg/kg-day. The LEL (Rattus norvegicus [1]; duration: 7 days, oral) was 60 mg/kg-day, the LEL (Rattus norvegicus [1]; [10]) was 250 mg/kg-day and the LEL (Rattus norvegicus [1]; duration: 30 days, oral) was 125 mg/kg-day. For the same molecule, the LEL (Mus musculus; duration: 0.17 days, injection, subcutaneous) was 0.00027 mg, the LEL (Mus musculus; [7]) was 1.25 mg/day and the LEL (Mus musculus; [8]) was 2 mg/day. For the same molecule, the LEL (Mus musculus; duration: 4 days, oral) was 100 mg/kg-day, the LEL (Mus musculus; duration: 4 days, oral, diet) was 2.5 mg/day and the LEL (Mus musculus; duration: 6 days, oral, diet) was 5.77 mg. For the same molecule, the LEL (Mus musculus; duration: 7 days, oral) was 200 mg/kg-day, the LEL (Mus musculus; [9]) was 0.5 mg/day and the LEL (Mus musculus; [10]) was 2 mg/day and 3 mg/day and 5 mg/day. The LEL (Mus musculus; duration: 28 days, injection, subcutaneous) was 25 mg/kg-day.

For `COP(=S)(OC)Oc1nc(Cl)c(Cl)cc1Cl` [Chlorpyrifos-methyl], the LOEL (Rattus norvegicus [1]; Hershberger, duration: 10 days, oral, gavage, Sprague-Dawley, active + Negative + Antiandrogenic + anti-androgenic) was 50 mg/kg-day and the NOAEL (Rattus norvegicus [3]; reproduction developmental, duration: 3 years, oral, diet, Liver: Effects + Reproduction: Decreased fertility) was 1 mg/kg-day.

Work on `COC(=O)c1ccc(C(=O)OC)cc1` [Dimethyl terephthalate] yielded an NOAEL (Rattus norvegicus [2]; duration: 90 days, Body Weight Changes: Weight gain decrease + Histopathology: Liver: Hepatocyte hypertrophy, diffuse) of 480 mg/kg-day, an LOAEL (Rattus norvegicus [4]; chronic, oral, diet, M/F, chronic kidney inflammation) of 125 mg/kg-day and an LOAEL (Rattus norvegicus [3]; chronic, duration: 103 weeks, oral, diet, Kidney: Inflammation) of 125 mg/kg-day.

With `CC(C)c1ccccc1` [Cumene] the LOAEL (Rattus norvegicus [4]; [11]) was 331 mg/kg-day, the NOAEL (Rattus norvegicus [4]; [11]) was 110 mg/kg-day and the LOAEL (Rattus norvegicus [4]; [12]) was 5910 mg/m3. It also gave an NOAEL (Rattus norvegicus [4]; [12]) of 2440 mg/m3, an NOAEL (Rattus norvegicus [3]; chronic, duration: 194 days, oral, gavage, Kidney: Increased weight) of 154 mg/kg-day and an NOAEL (Rattus norvegicus [3]; short-term, duration: 4 weeks, inhalation, intermittent, Central nervous system: Involvement + Nose: Irritation) of 517 mg/m3.

`O=C(OCc1ccccc1)c1ccc(O)cc1` [Benzyl 4-hydroxybenzoate] was tested, and the LEL (Rattus norvegicus [1]; duration: 3 days, oral) was 0.16 mg/kg-day and the LEL (Mus musculus; duration: 3 days, dermal) was 100 mg/day.

In the case of `O=C(O)Cc1cc(I)c(Oc2ccc(O)c(I)c2)c(I)c1` [Tiratricol], the LEL (Mus musculus; duration: 7 days, injection, subcutaneous) is reported as 1000 mg/kg-day and the LEL (Mus musculus; duration: 7 days, oral) is reported as 1000 mg/kg-day.

`C=CBr` [Vinyl bromide] gave an LOAEL (Rattus norvegicus [4]; chronic, inhalation, M/F, hypertrophy, basophilic and eosinophilic foci, in the liver) of 43 mg/m3 and an LOAEL (Rattus norvegicus [3]; chronic, duration: 24 months, inhalation, intermittent, Liver: Basophilic foci + Liver: Eosinophilic foci + Liver: Hypertrophy) of 42.4 mg/m3.

`CCOP(=O)(/N=C1\SCC(C)S1)OCC` (stereo not given) [Mephosfolan] was tested, and the NOEL (Rattus norvegicus [3]; chronic, duration: 17 weeks, oral, diet, Blood: Decreased cholinesterase activity + Brain: Decreased cholinesterase activity + Erythrocytes: Decreased cholinesterase activity + …) was 0.09 mg/kg-day.

`S=C([S-])NCCNC(=S)[S-].[Zn+2]` [Zineb] was tested, and the LOAEL (Rattus norvegicus [4]; chronic, oral, M/F, thyroid hyperplasia) was 25 mg/kg-day and the LOAEL (Rattus norvegicus [3]; chronic, duration: 2 years, oral, diet, hyperplasia) was 25 mg/kg-day.

Work on `C=C(C)c1ccccc1` [alpha-Methylstyrene] yielded an NOEL (Rattus norvegicus [3]; chronic, duration: 197 days, inhalation, intermittent, Kidney: Increased weight + Liver: Increased weight) of 970 mg/m3.

`COc1ccc(-c2coc3cc(O)cc(O)c3c2=O)cc1` [Biochanin A] gave an LEL (Mus musculus; duration: 4 days, oral, diet) of 2.5 mg/day.

For `C=CC(=C)Cl` [Chloroprene], the NOAEL (Rattus norvegicus [3]; chronic, duration: 2 years, inhalation, intermittent, Hair: Alopecia + Whole body: Decreased weight gain) was 36.2 mg/m3 and the NOAEL (Rattus norvegicus [3]; subchronic, duration: 90 days, inhalation, Olfactory epithelium: Degeneration) was 116 mg/m3.
